# Reference: US8299064B2, “Fused polycyclic compounds having a heterocyclic ring(s) and pharmaceutical use thereof” (priority 2003, dated 2012)
# System: adipose cells of rats
# Assay: Evaluation of the sugar transporting capacity (2-[14C(U)]-deoxy-D-glucose incorporation)
# Assay type: cell-based
# Settings: insulin 100 nM; isolated rat adipose cells
# Description: After the decapitation and venesection of 6 male Wistar rats (body weight: 150 to 200 g), an incision was made in the abdomen of each rat to extract 6 g in total of epididymal adipose tissues. The tissues were finely cut into 2 mm×2 mm pieces in 6 ml of KRH (Krebs-Ringer Hepes, composition: 130 mM of sodium chloride, 4.7 mM of potassium chloride, 1.2 mM of potassium dihydrogenphosphate, 1.2 mM of magnesium sulfate, 1 mM of calcium chloride and 25 mM of Hepes, pH=7.6) containing 5% of BSA (bovine serum albumin). 24 mg of collagenase (type I) was added thereto and the digestion treatment was conducted for about 40 minutes to obtain about 6 ml of isolated adipose cells. The collagenase was removed by the buffer exchange. 2% BSA/KRH solution was added to the residue for the re-suspension to obtain 45 ml of an adipose cell suspension.
# The sugar transporting capacity of the compound of the present invention was evaluated with reference to a method described in a literature [Annual Review of Biochemistry, Vol. 55, p. 1059 (1986)]. […]
# The sugar transporting capacity was evaluated by measuring the quantity of 2-[^14C(U)]-deoxy-D-glucose incorporated per a unit time. […] The quantity of 2-[^14C(U)]-deoxy-D-glucose contained in the adipose cell layer was determined with a liquid scintillation counter to determine the quantity of the incorporated sugar. […]
substance,measurement,value
insulin,effect of increasing the sugar-transporting capacity versus insulin-free control group,about 7 times
